Experimental data reported in patent US20100298141A1, “SUBSTITUTED PYRIDINE N-OXIDE HERBICIDES” (E. I. DU PONT DE NEMOURS AND COMPANY, priority 2007, published 2010).

Key:
[1] = test system: Surinam grass; assay: Test F preemergence test; assay type: in vivo, Brachiaria decumbens; conditions: scale 0 to 100
Procedure, shortened: (§1)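 Visual ratings relative to controls, taken after 14 to 21 days in a greenhouse. Test chemicals, formulated in a surfactant-containing non-phytotoxic solvent mixture, were applied preemergence to sown seeds or postemergence to sugarcane plants.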

[2] = test system: crabgrass; assay: Test A pre-/postemergence greenhouse test; assay type: in vivo, Digitaria sanguinalis; conditions: for Plant response rating, Crabgrass, Large: 0 to 100 scale where 0 is no effect and 100 is complete control; for Crabgrass, Large plant response rating: 0 to 100 scale
Procedure, shortened: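 Planting was into mixed loam soil and sand; preemergence treatment followed as a directed soil spray. Concurrently, emerged plants (one- to two-leaf, 2–10 cm) received postemergence applications of identically formulated compound (non-phytotoxic solvent, surfactant). After approximately ten days under greenhouse conditions, injury was judged by eye against untreated plants.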

[3] = test system: large crabgrass; assay: Test F preemergence test; assay type: in vivo, Digitaria sanguinalis; conditions: scale 0 to 100
Procedure, shortened: as §1

[4] = test system: downy brome; assay: Test C pre-/postemergence test; assay type: in vivo, Bromus tectorum
Procedure, shortened: (§2)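 Compounds in a non-phytotoxic solvent with surfactant applied preemergence to seeded pots and, at the same time, postemergence to plants 2–18 cm tall (1- to 4-leaf stage). Paddy tests: pots flooded to 3 cm, compound applied into the water, depth held throughout.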

[5] = test system: itchgrass; assay: Test F preemergence test; assay type: in vivo, Rottboellia cochinchinensis; conditions: scale 0 to 100
Procedure, shortened: as §1

[6] = test system: green foxtail; assay: Test F preemergence test; assay type: in vivo, Setaria viridis; conditions: scale 0 to 100
Procedure, shortened: as §1

[7] = test system: common ragweed; assay: Test F preemergence test; assay type: in vivo, Ambrosia elation; conditions: scale 0 to 100
Procedure, shortened: as §1

[8] = test system: johnsongrass; assay: Test F preemergence test; assay type: in vivo, Sorghum halepense; conditions: scale 0 to 100
Procedure, shortened: as §1

[9] = test system: Italian ryegrass; assay: Test F preemergence test; assay type: in vivo, Lolium multiflorum; conditions: scale 0 to 100
Procedure, shortened: as §1

[10] = test system: field bindweed; assay: Test F preemergence test; assay type: in vivo, Convolvulus arvensis; conditions: scale 0 to 100
Procedure, shortened: as §1

[11] = test system: southern sandbur; assay: Test F preemergence test; assay type: in vivo, Cenchrus echinatus; conditions: scale 0 to 100
Procedure, shortened: as §1

[12] = test system: catchweed bedstraw; assay: Test C pre-/postemergence test; assay type: in vivo, Galium aparine; conditions: for Plant response rating, Galium: 31 g ai/ha, scale 0 to 100 (0 no effect, 100 complete control)
Procedure, shortened: as §2

[13] = test system: goosegrass; assay: Test F preemergence test; assay type: in vivo, Eleusine indica; conditions: scale 0 to 100
Procedure, shortened: as §1

[14] = Postemergence, 500 g ai/ha, 0 is no effect, 100 is complete control
[15] = Preemergence, 125 g ai/ha, 0 no effect, 100 complete control
[16] = 62 g ai/ha, Preemergence, scale 0 to 100
[17] = 125 g ai/ha, preemergence, scale 0 (no effect) to 100 (complete control)
[18] = Preemergence, 31 g ai/ha, scale 0 to 100 (0 no effect, 100 complete control)
[19] = preemergence, 250 g ai/ha, scale 0 (no effect) to 100 (complete control)

Cn1nc(C(F)(F)F)c(C[S+]([O-])c2ccc(F)c[n+]2[O-])c1OC(F)F (stereo not drawn) [Compound 58]
Surinam Grass plant response rating ([1]; 125 g ai/ha, preemergence): 100 | Surinam Grass plant response rating ([1]; 250 g ai/ha, preemergence): 100 | Plant response rating, Surinam Grass ([1]; Preemergence, 62 g ai/ha): 98 | Plant response rating, Surinam Grass ([1]; Preemergence, 31 g ai/ha): 80 | Plant response rating, Crabgrass, Large ([2]; Postemergence, 125 g ai/ha): 80 | Crabgrass, Large plant response rating [2, 14]: 90 | Crabgrass, Large plant response rating [2, 15]: 80 | Plant response rating, Crabgrass, Large ([2]; Preemergence, 500 g ai/ha): 100 | Crabgrass, Large plant response rating ([3]; 62 g ai/ha, Preemergence): 98 | Crabgrass, Large plant response rating ([3]; 125 g ai/ha, preemergence): 100 | Crabgrass, Large plant response rating ([3]; 250 g ai/ha, preemergence): 100 | Plant response rating, Crabgrass, Large ([3]; Preemergence, 31 g ai/ha): 75 | Bromegrass, Downy plant response rating [4, 16]: 60 | Bromegrass, Downy plant response rating [4, 17]: 100 | Plant response rating (0 to 100), Bromegrass, Downy ([4]; Postemergence, 31 g ai/ha): 0 | Plant response rating, Bromegrass, Downy ([4]; Postemergence, 62 g ai/ha, scale 0 to 100, 0 no effect, 100 complete control): 0 | Plant response rating, Bromegrass, Downy ([4]; Postemergence, 125 g ai/ha, scale 0 to 100, 0 no effect, 100 complete control): 0 | Plant response rating, Bromegrass, Downy ([4]; Postemergence, 250 g ai/ha, scale 0 to 100, 0 no effect, 100 complete control): 60 | Plant response rating, Bromegrass, Downy [4, 18]: 0 | Bromegrass, Downy plant response rating [4, 19]: 100 | Itchgrass plant response rating ([5]; 62 g ai/ha, Preemergence): 75 | Itchgrass plant response rating ([5]; 125 g ai/ha, preemergence): 90 | Itchgrass plant response rating ([5]; 250 g ai/ha, preemergence): 100 | Plant response rating, Itchgrass ([5]; Preemergence, 31 g ai/ha): 35 | Foxtail, Green plant response rating ([6]; 62 g ai/ha, Preemergence): 95 | Foxtail, Green plant response rating ([6]; 125 g ai/ha, preemergence): 100 | Foxtail, Green plant response rating ([6]; 250 g ai/ha, preemergence): 100 | Plant response rating, Foxtail, Green ([6]; Preemergence, 31 g ai/ha): 60 | Ragweed plant response rating ([7]; 125 g ai/ha, preemergence): 60 | Ragweed plant response rating ([7]; 250 g ai/ha, preemergence): 80 | Plant response rating, Ragweed ([7]; Preemergence, 62 g ai/ha): 60 | Plant response rating, Ragweed ([7]; Preemergence, 31 g ai/ha): 50 | Johnsongrass plant response rating ([8]; 62 g ai/ha, Preemergence): 90 | Johnsongrass plant response rating ([8]; 125 g ai/ha, preemergence): 100 | Johnsongrass plant response rating ([8]; 250 g ai/ha, preemergence): 100 | Plant response rating, Johnsongrass ([8]; Preemergence, 31 g ai/ha): 80 | Ryegrass, Italian plant response rating ([9]; 125 g ai/ha, preemergence): 100 | Ryegrass, Italian plant response rating ([9]; 250 g ai/ha, preemergence): 100 | Plant response rating, Ryegrass, Italian ([9]; Preemergence, 62 g ai/ha): 98 | Plant response rating, Ryegrass, Italian ([9]; Preemergence, 31 g ai/ha): 50 | Field Bindweed plant response rating ([10]; 62 g ai/ha, Preemergence): 0 | Field Bindweed plant response rating ([10]; 125 g ai/ha, preemergence): 20 | Field Bindweed plant response rating ([10]; 250 g ai/ha, preemergence): 65 | Plant response rating, Field Bindweed ([10]; Preemergence, 31 g ai/ha): 0 | Sandbur plant response rating ([11]; 125 g ai/ha, preemergence): 100 | Sandbur plant response rating ([11]; 250 g ai/ha, preemergence): 100 | Plant response rating, Sandbur ([11]; Preemergence, 62 g ai/ha): 100 | Plant response rating, Sandbur ([11]; Preemergence, 31 g ai/ha): 80 | Galium plant response rating [12, 16]: 70 | Galium plant response rating [12, 17]: 100 | Plant response rating, Galium ([12]; Preemergence): 0 | Galium plant response rating [12, 19]: 100 | Goosegrass plant response rating ([13]; 62 g ai/ha, Preemergence): 98 | Goosegrass plant response rating ([13]; 125 g ai/ha, preemergence): 98 | Goosegrass plant response rating ([13]; 250 g ai/ha, preemergence): 100 | Plant response rating, Goosegrass ([13]; Preemergence, 31 g ai/ha): 70

Cn1nc(C(F)(F)F)c(C[S+]([O-])c2cccc[n+]2[O-])c1OCC(F)(F)F (racemic) [Compound 28]
Surinam Grass plant response rating ([1]; 62 g ai/ha, Preemergence): 100 | Surinam Grass plant response rating ([1]; 125 g ai/ha, preemergence): 100 | Plant response rating, Surinam Grass ([1]; Preemergence, 31 g ai/ha): 90 | Crabgrass, Large plant response rating ([2]; Postemergence, 125 g ai/ha, 0 is no effect, 100 is complete control): 80 | Crabgrass, Large plant response rating [2, 14]: 90 | Crabgrass, Large plant response rating [2, 15]: 100 | Plant response rating, Crabgrass, Large ([2]; Preemergence, 500 g ai/ha): 100 | Crabgrass, Large plant response rating ([3]; 62 g ai/ha, Preemergence): 100 | Crabgrass, Large plant response rating ([3]; 125 g ai/ha, preemergence): 100 | Plant response rating, Crabgrass, Large ([3]; Preemergence, 16 g ai/ha): 30 | Plant response rating, Crabgrass, Large ([3]; Preemergence, 31 g ai/ha): 80 | Bromegrass, Downy plant response rating [4, 16]: 40 | Plant response rating, Bromegrass, Downy [4, 18]: 0 | Plant response rating (0 to 100), Bromegrass, Downy ([4]; Preemergence, 250 g ai/ha): 100 | Bromegrass, Downy plant response rating ([4]; preemergence, 125 g ai/ha, scale 0 (no effect) to 100 (complete control)): 50 | Itchgrass plant response rating ([5]; 62 g ai/ha, Preemergence): 95 | Itchgrass plant response rating ([5]; 125 g ai/ha, preemergence): 100 | Plant response rating, Itchgrass ([5]; Preemergence, 16 g ai/ha): 20 | Plant response rating, Itchgrass ([5]; Preemergence, 31 g ai/ha): 35 | Foxtail, Green plant response rating ([6]; 62 g ai/ha, Preemergence): 100 | Foxtail, Green plant response rating ([6]; 125 g ai/ha, preemergence): 100 | Plant response rating, Foxtail, Green ([6]; Preemergence, 16 g ai/ha): 30 | Plant response rating, Foxtail, Green ([6]; Preemergence, 31 g ai/ha): 80 | Ragweed plant response rating ([7]; 62 g ai/ha, Preemergence): 80 | Ragweed plant response rating ([7]; 125 g ai/ha, preemergence): 90 | Plant response rating, Ragweed ([7]; Preemergence, 16 g ai/ha): 20 | Plant response rating, Ragweed ([7]; Preemergence, 31 g ai/ha): 70 | Johnsongrass plant response rating ([8]; 62 g ai/ha, Preemergence): 100 | Johnsongrass plant response rating ([8]; 125 g ai/ha, preemergence): 100 | Plant response rating, Johnsongrass ([8]; Preemergence, 16 g ai/ha): 40 | Plant response rating, Johnsongrass ([8]; Preemergence, 31 g ai/ha): 75 | Ryegrass, Italian plant response rating ([9]; 62 g ai/ha, Preemergence): 100 | Ryegrass, Italian plant response rating ([9]; 125 g ai/ha, preemergence): 100 | Plant response rating, Ryegrass, Italian ([9]; Preemergence, 16 g ai/ha): 65 | Plant response rating, Ryegrass, Italian ([9]; Preemergence, 31 g ai/ha): 98 | Field Bindweed plant response rating ([10]; 62 g ai/ha, Preemergence): 80 | Field Bindweed plant response rating ([10]; 125 g ai/ha, preemergence): 90 | Plant response rating, Field Bindweed ([10]; Preemergence, 16 g ai/ha): 60 | Plant response rating, Field Bindweed ([10]; Preemergence, 31 g ai/ha): 70 | Sandbur plant response rating ([11]; 62 g ai/ha, Preemergence): 100 | Sandbur plant response rating ([11]; 125 g ai/ha, preemergence): 100 | Plant response rating, Sandbur ([11]; Preemergence, 31 g ai/ha): 90 | Galium plant response rating [12, 16]: 100 | Plant response rating, Galium ([12]; Preemergence): 100 | Plant response rating (0 to 100), Galium ([12]; Preemergence, 250 g ai/ha): 100 | Goosegrass plant response rating ([13]; 62 g ai/ha, Preemergence): 100 | Goosegrass plant response rating ([13]; 125 g ai/ha, preemergence): 100 | Plant response rating, Goosegrass ([13]; Preemergence, 16 g ai/ha): 65 | Plant response rating, Goosegrass ([13]; Preemergence, 31 g ai/ha): 98
